According to ChEMBL document CHEMBL5030544, “Synthesis, anti-microbial, toxicity and molecular docking studies of N-nitroso-N-phenylhydroxylamine (cupferron) and its derivatives” (Bioorg Med Chem Lett, 2021):
In brackets after ≈: the same amount, converted by molar mass.

How the values were obtained:
Streptococcus pyogenes [1] = experiment: Antibacterial activity against Streptococcus pyogenes ATCC 19615 assessed as bacterial growth inhibition; format: functional
Escherichia coli [2] = experiment: Antibacterial activity against Escherichia coli ATCC 25922 assessed as bacterial growth inhibition; format: functional
Klebsiella pneumoniae [3] = experiment: Antibacterial activity against Klebsiella pneumoniae ATCC 13883 assessed as bacterial growth inhibition; format: functional
Staphylococcus aureus [4] = experiment: Antibacterial activity against Staphylococcus aureus […] assessed as zone of inhibition at 5 mg/ml; format: functional; conditions: read-out: IZ
Staphylococcus aureus [5] = experiment: Antibacterial activity against Staphylococcus aureus […] assessed as zone of inhibition at 10 mg/ml; format: functional; conditions: read-out: IZ
Staphylococcus aureus [6] = experiment: Antibacterial activity against Staphylococcus aureus […] assessed as zone of inhibition at 15 mg/ml; format: functional; conditions: read-out: IZ
Streptococcus pyogenes [7] = experiment: Antibacterial activity against Streptococcus pyogenes ATCC 19615 assessed as zone of inhibition at 5 mg/ml; format: functional; conditions: read-out: IZ
Streptococcus pyogenes [8] = experiment: Antibacterial activity against Streptococcus pyogenes ATCC 19615 assessed as zone of inhibition at 10 mg/ml; format: functional; conditions: read-out: IZ
Streptococcus pyogenes [9] = experiment: Antibacterial activity against Streptococcus pyogenes ATCC 19615 assessed as zone of inhibition at 15 mg/ml; format: functional; conditions: read-out: IZ
Bacillus subtilis [10] = experiment: Antibacterial activity against Bacillus subtilis ATCC 23857 assessed as zone of inhibition at 10 mg/ml; format: functional; conditions: read-out: IZ
Bacillus subtilis [11] = experiment: Antibacterial activity against Bacillus subtilis ATCC 23857 assessed as zone of inhibition at 15 mg/ml; format: functional; conditions: read-out: IZ
Corynebacterium [12] = experiment: Antibacterial activity against Corynebacterium ATCC 49368 assessed as zone of inhibition at 10 mg/ml; format: functional; conditions: read-out: IZ
Corynebacterium [13] = experiment: Antibacterial activity against Corynebacterium ATCC 49368 assessed as zone of inhibition at 15 mg/ml; format: functional; conditions: read-out: IZ
Klebsiella pneumoniae [14] = experiment: Antibacterial activity against Klebsiella pneumoniae ATCC 13883 assessed as zone of inhibition at 15 mg/kg; format: functional; conditions: read-out: IZ
Pseudomonas aeruginosa [15] = experiment: Antibacterial activity against Pseudomonas aeruginosa ATCC 27853 assessed as zone of inhibition at 10 mg/ml; format: functional; conditions: read-out: IZ
Pseudomonas aeruginosa [16] = experiment: Antibacterial activity against Pseudomonas aeruginosa ATCC 27853 assessed as zone of inhibition at 15 mg/ml; format: functional; conditions: read-out: IZ
Staphylococcus aureus [17] = experiment: Antibacterial activity against Staphylococcus aureus […] assessed as bacterial growth inhibition; format: functional
Bacillus subtilis [18] = experiment: Antibacterial activity against Bacillus subtilis ATCC 23857 assessed as bacterial growth inhibition; format: functional
Corynebacterium [19] = experiment: Antibacterial activity against Corynebacterium ATCC 49368 assessed as bacterial growth inhibition; format: functional
Salmonella typhi [20] = experiment: Antibacterial activity against Salmonella typhi ATCC 6539 assessed as bacterial growth inhibition; format: functional, Salmonella enterica subsp. enterica serovar Typhi; conditions: Salmonella enterica
Bacillus subtilis [21] = experiment: Antibacterial activity against Bacillus subtilis ATCC 23857 assessed as zone of inhibition at 5 mg/ml; format: functional; conditions: read-out: IZ
Corynebacterium [22] = experiment: Antibacterial activity against Corynebacterium ATCC 49368 assessed as zone of inhibition at 5 mg/ml; format: functional; conditions: read-out: IZ
Escherichia coli [23] = experiment: Antibacterial activity against Escherichia coli ATCC 25922 assessed as zone of inhibition at 5 mg/ml; format: functional; conditions: read-out: IZ
Escherichia coli [24] = experiment: Antibacterial activity against Escherichia coli ATCC 25922 assessed as zone of inhibition at 10 mg/ml; format: functional; conditions: read-out: IZ
Escherichia coli [25] = experiment: Antibacterial activity against Escherichia coli ATCC 25922 assessed as zone of inhibition at 15 mg/ml; format: functional; conditions: read-out: IZ
Salmonella typhi [26] = experiment: Antibacterial activity against Salmonella typhi ATCC 6539 assessed as zone of inhibition at 5 mg/kg; format: functional, Salmonella enterica subsp. enterica serovar Typhi; conditions: Salmonella enterica, read-out: IZ
Salmonella typhi [27] = experiment: Antibacterial activity against Salmonella typhi ATCC 6539 assessed as zone of inhibition at 10 mg/kg; format: functional, Salmonella enterica subsp. enterica serovar Typhi; conditions: Salmonella enterica, read-out: IZ
Salmonella typhi [28] = experiment: Antibacterial activity against Salmonella typhi ATCC 6539 assessed as zone of inhibition at 15 mg/kg; format: functional, Salmonella enterica subsp. enterica serovar Typhi; conditions: Salmonella enterica, read-out: IZ
Klebsiella pneumoniae [29] = experiment: Antibacterial activity against Klebsiella pneumoniae ATCC 13883 assessed as zone of inhibition at 5 mg/kg; format: functional; conditions: read-out: IZ
Klebsiella pneumoniae [30] = experiment: Antibacterial activity against Klebsiella pneumoniae ATCC 13883 assessed as zone of inhibition at 10 mg/kg; format: functional; conditions: read-out: IZ
Pseudomonas aeruginosa [31] = experiment: Antibacterial activity against Pseudomonas aeruginosa ATCC 27853 assessed as bacterial growth inhibition; format: functional
Pseudomonas aeruginosa [32] = experiment: Antibacterial activity against Pseudomonas aeruginosa ATCC 27853 assessed as zone of inhibition at 5 mg/ml; format: functional; conditions: read-out: IZ
HepG2 = experiment: Cytotoxicity against human HepG2 cells at up to 100 uM by MTT assay; format: cell-based
LLC-PK1 = experiment: Cytotoxicity against pig LLC-PK1 cells at up to 100 uM by MTT assay; format: cell-based, Sus scrofa

Row | Compound | MIC (Streptococcus pyogenes [1]) [µg/mL] | MIC (Escherichia coli [2]) [µg/mL] | MIC (Klebsiella pneumoniae [3]) [µg/mL] | zone of inhibition at 5000 µg/mL (Staphylococcus aureus [4]) [mm] | zone of inhibition at 10000 µg/mL (Staphylococcus aureus [5]) [mm] | zone of inhibition at 15000 µg/mL (Staphylococcus aureus [6]) [mm] | zone of inhibition at 5000 µg/mL (Streptococcus pyogenes [7]) [mm] | zone of inhibition at 10000 µg/mL (Streptococcus pyogenes [8]) [mm] | zone of inhibition at 15000 µg/mL (Streptococcus pyogenes [9]) [mm] | zone of inhibition at 10000 µg/mL (Bacillus subtilis [10]) [mm] | zone of inhibition at 15000 µg/mL (Bacillus subtilis [11]) [mm] | zone of inhibition at 10000 µg/mL (Corynebacterium [12]) [mm] | zone of inhibition at 15000 µg/mL (Corynebacterium [13]) [mm] | zone of inhibition at 15 mg/kg (Klebsiella pneumoniae [14]) [mm] | zone of inhibition at 10000 µg/mL (Pseudomonas aeruginosa [15]) [mm] | zone of inhibition at 15000 µg/mL (Pseudomonas aeruginosa [16]) [mm] | MIC (Bacillus subtilis [18]) [µg/mL] | MIC (Corynebacterium [19]) [µg/mL] | zone of inhibition at 5000 µg/mL (Bacillus subtilis [21]) [mm] | zone of inhibition at 5000 µg/mL (Corynebacterium [22]) [mm] | also measured
1 | CN[C@@H]1[C@H](O[C@H]2[C@H](O[C@H]3[C@H](O)[C@@H](O)[C@H](N=C(N)N)[C@@H](O)[C@@H]3N=C(N)N)O[C@@H](C)[C@]2(O)C=O)O[C@@H](CO)[C@H](O)[C@H]1O [STREPTOMYCIN] | 8 (≈ 13.8 µM) | 16 (≈ 27.5 µM) | 16 (≈ 27.5 µM) | 2 | 4 | 8 | 2 | 3 | 10 | 10 | 20 | 8 | 20 | 14 | 11 | 15 | – | – | – | – | –
2 | N.O=NN(O)c1ccc(Cl)cc1 | 4 | 20 | 20 | 9 | 9 | 25 | 12 | 15 | 27 | 19 | 35 | 16.1 | 23 | 15 | 10 | 13 | 2 | 8 | 14 | 13 | MIC (Staphylococcus aureus [17]): 4 µg/mL; MIC (Salmonella typhi [20]): 20 µg/mL; zone of inhibition at 5000 µg/mL (Escherichia coli [23]): 10 mm; zone of inhibition at 10000 µg/mL (Escherichia coli [24]): 14 mm; zone of inhibition at 15000 µg/mL (Escherichia coli [25]): 20 mm; zone of inhibition at 5 mg/kg (Salmonella typhi [26]): 9 mm; zone of inhibition at 10 mg/kg (Salmonella typhi [27]): 13 mm; zone of inhibition at 15 mg/kg (Salmonella typhi [28]): 19 mm; zone of inhibition at 5 mg/kg (Klebsiella pneumoniae [29]): 8 mm; zone of inhibition at 10 mg/kg (Klebsiella pneumoniae [30]): 11 mm; MIC (Pseudomonas aeruginosa [31]): 20 µg/mL; zone of inhibition at 5000 µg/mL (Pseudomonas aeruginosa [32]): 5 mm; Activity (HepG2): Non-Toxic; Activity (LLC-PK1): Non-Toxic
3 | O=C(O)c1cn(C2CC2)c2cc(N3CCNCC3)c(F)cc2c1=O [CIPROFLOXACIN] | – | – | – | 7 | 10 | 22 | 10 | 13 | 26 | 15 | 27 | 16 | 19 | 25 | 18 | 25 | 2 (≈ 6.04 µM) | 4 (≈ 12.1 µM) | 12 | 10 | zone of inhibition at 10000 µg/mL (Escherichia coli [24]): 11 mm; zone of inhibition at 15000 µg/mL (Escherichia coli [25]): 10 mm; zone of inhibition at 10 mg/kg (Salmonella typhi [27]): 15 mm; zone of inhibition at 15 mg/kg (Salmonella typhi [28]): 32 mm; zone of inhibition at 10 mg/kg (Klebsiella pneumoniae [30]): 12 mm; zone of inhibition at 5000 µg/mL (Pseudomonas aeruginosa [32]): 15 mm
